For one compound, MIC results are on record in patent publication US20260308184A1, “SUBSTITUTED PYRIMIDINEDIONE COMPOUNDS, COMPOSITIONS, AND USES THEREOF” (LAKEWOOD AMEDEX, INC., priority 2023, published 2026).

Molecules are shown by their SMILES. Converted amounts (≈) assume the structure as drawn.

Common to all, as to test: Minimum Inhibitory Concentration, broth microdilution
Common to all, as to format: cell-based
Common to all, as to conditions: pH 4-5, Mueller Hinton Broth, 18 to 24 hours
On the technique in general: In broth dilution the organism is exposed to a series of concentrations in liquid medium.

The test system of test [1] is Escherichia coli (0102). How it is done: (§1) MIC testing is conducted using the broth (Mueller Hinton Broth) microdilution procedures relevant to each organism group as established by the Clinical and Laboratory Standards Institute (CLSI; 3-7). MIC plates are prepared in accordance with CLSI (3-7). To prepare the test plates, automated liquid handlers are used to conduct serial dilutions and liquid transfers. Automated liquid handlers utilized in this study include the Multidrop 384 (Labsystems, Helsinki, Finland) and the Biomek 2000 (Beckman Coulter, Fullerton CA). The solution is diluted to desired pH using 1 M Citric Acid or 1 M NaOH buffer. A standardized inoculum of each test organism is prepared per CLSI methods (3, 5-7) to equal a 0.5 McFarland standard in the appropriate media followed by an additional 1:20 dilution (1:10 for anaerobes).
(§2) The plates are then inoculated with 10 μL of the diluted 0.5 McFarland suspension using the Biomek 2000 from low to high drug concentration, resulting in a final concentration of approximately 5×10^5 CFU/mL per well. An un-inoculated plate is incubated for the purpose of assessing solubility of the drug in the test media. The plates are stacked 3 to 4 high, covered with a sterile lid on the top plate, and incubated for 18 to 24 hours according to CLSI. The MIC is recorded as the lowest concentration of respective compound that inhibited visible growth of the organism.

Test [2] deals with Pseudomonas aeruginosa (6234). How it is done: as §1, §2
Test [3] concerns Pseudomonas aeruginosa (0103). How it is done:
as §1, §2

The subject of test [4] is Escherichia coli (6098). How it is done:
as §1, §2

Test [5] concerns Pseudomonas aeruginosa (6160). How it is done: as §1, §2
In test [6] the test system is Escherichia coli (6260). How it is done: as §1, §2

In general, MIC refers to the least concentration at which growth counts as inhibited. A low value points to greater potency. For `Cc1cn([C@H]2C[C@H](O)[C@@H](COP(=O)(O)OCCCCO)O2)c(=O)[nH]c1=O` [R-9], the MIC was determined as 100 mg/mL (≈ 254 mM) in test [1]; 50 mg/mL (≈ 127 mM) in test [2]; 100 mg/mL (≈ 254 mM) in test [3]; 100 mg/mL (≈ 254 mM) in test [4]; 100 mg/mL (≈ 254 mM) in test [5]; 100 mg/mL (≈ 254 mM) in test [6].
